No end group written: not given here.
What was measured:
[1] = system: rat abdominal muscle after celiotomy (vascular leakage); test: Vascular leakage after celiotomy (4 cm midline incision through abdominal muscle wall), Monastral blue; assay type: in vivo; conditions: for Area / Intensity / Lesion Size: tissues 0.5 hr after surgery
Procedure: Experiments were conducted on male Sprague-Dawley rats 243±15 gm (S. D., Simonsen Labs., Gilroy, Calif.) anesthetized with sodium pentobarbital, 60 mg/kg i.p. Monastral blue, 60 mg/kg i.v., was injected 0.2 ml/100 g, 3 min. before a 4 cm midline incision through the abdominal muscle wall (celiotomy). Saline or CRF was administered to randomizd pairs with N=8 rats per group. The size of the lesion, measured as area in mm^2, an its light intensity, were quantified using the JAVA image-analysis software program. The light intensity, given in arbitrary units, was internally calibrated using Monastral blue solutions (1-30 mg/ml) placed on white filter paper. Values are mean ±S. E. M. FIG. 2 illustrates the respective amount of vascular permeability for one pair of rats (control and treated). Tables III and IV set out data from these experiments.
CRF: injected at various doses subcutaneously 30 min
before a 4 cm midline incision, tissues taken 0.5 hr
CRF: 30 μg/kg s.c. injected 2 hr before a 4 cm midline
incision, tissues taken 0.5 hr after surgery

rat pawskin = conditions: mediators injected into the rat pawskin; previously shown; cited from earlier work
[2] = system: rat brain after cold injury (vascular permeability); test: Freeze (cold) injury to brain, Monastral blue vascular leakage; assay type: in vivo
From the text: An in vivo model of injury to study brain edema has been developed as a reproducible edema model, which has the features of immediate cortical damage followed by the subsequent development of brain edema. This model is described by Chan et al., Brain Research 277, pp. 329-337 (1983). The model uses rats which are anesthetized. A 2.5 cm incision is made over the sagittal suture and the bone of the right hemisphere exposed. A 60 mm^2 plate attached to a brass cup filled with dry ice-acetone mixture, with a temperature of -50° C., is applied to the rat skull for one minute. The animals are sacrificed at various intervals after the onset of cold-injury. A dye is administered intravenously before the freezing. Cortical slices are then obtained of the brain.
16 male rats were randomly divided into eight pairs and one rat in each pair received either saline or CRF (subcutaneously twice at 30 μg/kg, 30 min and 10 min before cold injury). The animals were anesthetized with sodium pentobarbital, 60 mg/kg intraperitoneally, and injected with Monastral blue, 60 mg/kg intravenously. A cold probe was applied onto the skull for […] and the brains taken out 1 hour after cold injury. The staining of brain tissues with Monastral blue, a colloidal pigment that gets trapped between the albuminal surface of the endothelial cell and the basement membrane, was proportional to the degree of vascular leakage. The results from the first pair are shown as FIG. 1.
The size of the lesion, measured as area in mm^2, and the degree of staining intensity, were quantified using an image-analysis software program called JAVA (Jandel Corporation, San Rafeal, Calif.). The stain intensity, given in arbitrary units, was internally calibrated using Monastral blue solutions (1-30 mg/ml) placed on white filter paper. Values are mean ±S. E. M.

[3] = Vascular leakage produced by PAF-acether injected subcutaneously into the abdomen; assay type: in vivo, rat; conditions: CRF 30 μg/kg s.c. 30 min before PAF-acether 1 μg/0.1 ml/rat s.c.; muscle removed 0.5 hr later
Procedure: (§1) CRF: 30 μg/kg s.c. injected 30 min before subcutaneous
(§2) injection of PAF-acether (1 μg/0.1 ml/rat) into the
(§3) abdomen; muscle removed 0.5 hr later.

PAF-acether = test: as above; assay type: in vivo, rat; conditions: CRF 30 μg/kg s.c. 30 min before PAF-acether
Procedure: as §1, §2, §3

[4] = system: rat brain after cold injury (brain edema); test: Freeze injury to cerebral cortex, water and sodium content as index of brain edema; assay type: in vivo; conditions: CRF 30 μg/kg s.c. 2×, tissues 3 hr after cold injury, ± S.E.M., N = 5
Procedure: In a second set of experiments, the brain surface, namely the cerebral cortex, was injured by freezing and the water and sodium content were measured in the cerebral cortex and in the basal ganglia, a part of the brain away from the freeze zone. The water and sodium content of the brain tissue served as an index of brain edema. After freeze injury, the water and sodium content of the cerebral cortex were evaluated relative to non-frozen tissues. CRF administered in two separate doses of 30 μg/kg subcutaneously, one dose 15 min. before the injury and the second dose 90 min. after the first dose, inhibited the two indices of brain edema.
Male SpragueDawley rats, 300-325 g, anesthetized with
ketamineacepromazine, were injected saline or CRF (30 μg/kg s.c.
2×) and injury to cerebral cortex was produced by applying a cold
probe to the skull for 1 min. Brain tissues were obtained 3 hr later and
analyzed for water and sodium content.

blood pressure = conditions: prior art report; cited from earlier work
ACTH = conditions: prior art report; cited from earlier work
[5] = CRF 15 μg/kg s.c. 30 min before incision
[6] = CRF 30 μg/kg s.c. 30 min before incision
[7] = CRF 30 μg/kg s.c. 2 hr before incision
[8] = CRF 60 μg/kg s.c. 30 min before incision

For “Corticotropin-Releasing Factor (SEEPPISLDLTFHLLREVLEMARAEQLAQQAHSNRKLMEII; not fully specified; ends and bridges not checked; UniProt P06850 154-194, looked up) [CRF]”, which “lesion size relative to that of the saline-treated group” value [1, 5] is on record?
Its value is 63%.

And the Area [1, 5]?
Its Area is 505 ± 16 mm^2.

What about the Intensity [1, 5] of the same substance?
Its Intensity is 2.0 ± 0.03 arbitrary units.

What about the “Lesion Size” value [1, 5] of the same substance?
The value was 1031 ± 44.

What about the “lesion size relative to that of the saline-treated group” value [1, 6] of the same substance?
Its value is 42%.

What about the Area [1, 6] of the same substance?
The Area was 361 ± 18 mm^2.

What about the Intensity [1, 6] of the same substance?
The Intensity was 1.9 ± 0.05 arbitrary units.

And the “Lesion Size” value [1, 6]?
The value was 676 ± 47.

And the “lesion size relative to that of the saline-treated group” value [1, 7]?
Its value is 59%.

And the Area [1, 7]?
The Area was 477 ± 31 mm^2.

What about the Intensity [1, 7] of the same substance?
The Intensity was 1.9 ± 0.03 arbitrary units.

And the “Lesion Size” value [1, 7]?
Its value is 919 ± 51.

What about the “lesion size relative to that of the saline-treated group” value [1, 8] of the same substance?
The value was 29%.

What about the Area [1, 8] of the same substance?
The Area was 257 ± 3 mm^2.

And the Intensity [1, 8]?
Its Intensity is 1.8 ± 0.05 arbitrary units.

And the “Lesion Size” value [1, 8]?
Its value is 468 ± 19.

What about the “effect on edema-producing properties of inflammatory mediators (serotonin, substance P, bradykinin, neurotensin, histamine)” value (rat pawskin) of the same substance?
Its value is “antagonize the edema-producing properties of these mediators”.

And the “blinded observer's correct assignment of brains to saline or CRF group” value ([2]; eight pairs of rats, more damaged vs less damaged brain)?
Its value is 8 out of 8.

And the “lesion size relative to that of the saline-treated group” value ([2]; rat, CRF 30 μg/kg s.c. twice before cold injury)?
The value was 44%.

And the “Intensity (stain intensity)” value ([2]; rat, CRF 30 μg/kg s.c. twice, 30 min and 10 min before cold injury, brains taken 1 hour after injury, mean ± S.E.M.)?
The value was 2.0 ± 0.05 arbitrary units.

And the Intensity [3]?
Its Intensity is 1.4 ± 0.05.

What about the “muscle lesion size relative to that of the saline-treated control group” value (PAF-acether) of the same substance?
Its value is 44%.

And the “SODIUM, cerebral cortex” value ([4]; injured cerebral cortex)?
Its value is 271 ± 8 mEg/kg dry wt.

What about the “WATER CONTENT, cerebral cortex” value ([4]; injured cerebral cortex) of the same substance?
Its value is 77 ± 4%.

What about the “SODIUM, basal ganglia” value ([4]; non-injured basal ganglia) of the same substance?
Its value is 215 ± 9 mEg/kg dry wt.

And the “WATER CONTENT, basal ganglia” value ([4]; non-injured basal ganglia)?
Its value is 76 ± 1%.

Which “effect on blood pressure” value (blood pressure) does the source give for “oCRF: ovine (sheep) CRF, synthetic, disclosed in U.S. Pat. No. 4,415,558 (SQEPPISLDLTFHLLREVLEMTKADQLAQQAHSNRKLLDIA; not fully specified; ends and bridges not checked; UniProt P01142 148-188, looked up)” here?
The value was “lower blood pressure”.

Which “effect on ACTH secretion” value (ACTH) does the source give for “sauvagine (QGPPISIDLSLELLRKMIEIEKQEKEKQQAANNRLLLDTI; not fully specified; ends and bridges not checked; UniProt P01144 1-40, looked up) [40 amino acid peptide generally similar to CRF]” here?
The value was “stimulating the secretion of ACTH and -endorphin”.

What about the “effect on blood pressure” value (blood pressure) of the same substance?
The value was “lowering blood pressure in mammals”.

— US5306710A, “Method for treating endotoxin shock with CRF” (Regents of the University of California, priority 1992, dated 1994)
